# Assay results taken from paper PMC6010117, “Isatin: a privileged scaffold for the design of carbonic anhydrase inhibitors” (Journal of Enzyme Inhibition and Medicinal Chemistry, 2016).
# Key:
# Assay in all cases: CA inhibition assay, Verpoorte method at […] nm, Lineweaver-Burk
# Assay type in all cases: biochemical
# hCA II = target: T1, hCA II (Homo sapiens, UniProt P00918)
# T1 construct: gene CA2
# hCA I = target: T2, hCA I (Homo sapiens, UniProt P00915)
# T2 construct: gene CA1
# hCA XII = target: T3, hCA XII (Homo sapiens, UniProt O43570)
# T3 construct: gene CA12; not described
# T3 sequence (O43570 25-354): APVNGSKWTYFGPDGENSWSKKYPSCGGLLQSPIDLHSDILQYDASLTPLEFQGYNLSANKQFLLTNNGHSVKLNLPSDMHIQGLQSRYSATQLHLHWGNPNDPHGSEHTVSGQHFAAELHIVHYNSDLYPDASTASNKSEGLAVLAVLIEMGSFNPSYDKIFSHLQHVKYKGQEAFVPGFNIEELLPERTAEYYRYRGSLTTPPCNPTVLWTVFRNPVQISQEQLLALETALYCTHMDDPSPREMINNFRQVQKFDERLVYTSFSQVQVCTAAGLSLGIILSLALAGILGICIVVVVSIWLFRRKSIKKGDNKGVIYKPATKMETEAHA
# hCA IX = target: T4, hCA IX (Homo sapiens, UniProt Q16790)
# T4 construct: gene CA9; not described
# T2 sequence (P00915 2-261): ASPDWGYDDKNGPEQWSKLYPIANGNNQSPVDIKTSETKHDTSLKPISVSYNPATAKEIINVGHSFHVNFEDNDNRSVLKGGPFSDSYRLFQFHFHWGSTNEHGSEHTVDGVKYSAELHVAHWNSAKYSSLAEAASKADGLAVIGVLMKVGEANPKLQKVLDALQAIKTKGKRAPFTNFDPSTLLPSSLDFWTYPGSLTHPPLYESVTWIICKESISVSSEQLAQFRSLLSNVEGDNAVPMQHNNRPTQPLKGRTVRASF
Structure (SMILES),Ki (hCA II),Ki (hCA I),Ki (hCA XII),Ki (hCA IX)
"CN1C(=O)C(=C2C(=O)Nc3ccc(Cl)cc32)SC1=Nc1ccc(S(N)(=O)=O)cc1 [c, EMAC 10020 c]",8300 nM,958 nM,865 nM,55.7 nM
"CN1C(=O)C(=C2C(=O)Nc3ccc(C(F)(F)F)cc32)SC1=Nc1ccc(S(N)(=O)=O)cc1 [n, EMAC 10020 n]",5720 nM,945 nM,873 nM,2660 nM
"CN1C(=O)C(=C2C(=O)Nc3c(Br)cccc32)SC1=Nc1ccc(S(N)(=O)=O)cc1 [o, EMAC 10020 o]",8780 nM,877 nM,824 nM,126 nM

# These reach a lower Ki (hCA II). Values come first.
Ki (hCA II),Ki (hCA I),Ki (hCA XII),Ki (hCA IX),Structure (SMILES)
274 nM,50.3 nM,85 nM,50.7 nM,"CN1C(=O)C(=C2C(=O)Nc3ccc(F)cc32)SC1=Nc1ccc(S(N)(=O)=O)cc1 [d, EMAC 10020 d]"
139 nM,44.3 nM,90.7 nM,4.1 nM,"CN1C(=O)C(=C2C(=O)Nc3c(F)cccc32)SC1=Nc1ccc(S(N)(=O)=O)cc1 [m, EMAC 10020 m]"
79.1 nM,87.6 nM,440 nM,3 nM,"Cc1ccc2c(c1)C(=C1SC(=Nc3ccc(S(N)(=O)=O)cc3)N(C)C1=O)C(=O)N2 [l, EMAC 10020 l]"
